The source of these data is ChEMBL document CHEMBL1201862, “PubChem BioAssay data set” (2004).

Among the test systems are 786-0; A549; ACHN; CCRF-CEM; COLO 205; EKVX; HCT-15; HOP-92; IGROV-1; KM-20L2; LOX IMVI; NCI-H226; NCI-H460; OVCAR-3; OVCAR-4; SK-MEL-2; U-251; UACC-257.
Test in all cases: NCI tumour cell line growth inhibition, 48 h

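Exposure lasted 48 hours, with cells grown in 96-well plates and compounds tested at five concentrations. Abbreviation: GI50, concentration required for 50% inhibition of growth.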 Activity calls are given as the source filed them. No stated cut-off is given here; in the data, active = GI50 up to about 1.1 µM and inactive = higher.

As to `O=NN(CCCl)C(=O)NCc1ccc[n+]([O-])c1`, the GI50 with 786-0 was 35.7 µM (inactive); in the experiment with A549, 93.8 µM (inactive); in the experiment with ACHN, > 100 µM (inactive); with CCRF-CEM it was 65.8 µM (inactive); in the experiment on COLO 205, > 100 µM (inactive); with EKVX, > 100 µM (inactive). Also, the GI50 in the experiment with HCT-15 was > 100 µM; in the experiment on HOP-92 it was 15.8 µM (inactive); with IGROV-1 it was > 100 µM (inactive); in the experiment with KM-20L2, > 100 µM (inactive); in the experiment with LOX IMVI, 70.6 µM (inactive); in the experiment on NCI-H226, > 100 µM (inactive). The GI50 in the experiment with NCI-H460 is 45.7 µM (inactive); in the experiment on OVCAR-3 it was > 100 µM (inactive); in the experiment on OVCAR-4 it was > 100 µM (inactive); in the experiment with SK-MEL-2, > 100 µM (inactive); in the experiment with U-251, 43.2 µM (inactive); in the experiment on UACC-257, > 100 µM (inactive).
Consider `N#CC(N)(C(=O)C(=O)NCCCNC(=O)C(=O)C(N)(C#N)c1ccc(Cl)cc1)c1ccc(Cl)cc1` (stereo unspecified), for which the GI50 in the experiment with 786-0, in the experiment with A549, in the experiment with ACHN, in the experiment on CCRF-CEM, with COLO 205 and in the experiment with EKVX was > 100 µM (inactive) in each case. Further, the GI50 was > 100 µM in the experiment with HCT-15; > 100 µM (inactive) in the experiment on HOP-92; > 100 µM (inactive) in the experiment on IGROV-1; > 100 µM (inactive) in the experiment on KM-20L2; > 100 µM (inactive) in the experiment on LOX IMVI; > 100 µM (inactive) with NCI-H226. Further, the GI50 with NCI-H460, in the experiment on OVCAR-3, with OVCAR-4, in the experiment on SK-MEL-2, in the experiment with U-251 and with UACC-257 was > 100 µM (inactive) in each case.
In the case of `Cc1ccc(C)c(N2C(=O)C(=O)C(c3nc4ccccc4o3)C(=O)C2=O)c1`, the GI50 with 786-0 is > 100 µM (inactive); with A549, > 100 µM (inactive); with ACHN, > 100 µM (inactive); with CCRF-CEM it was 17 µM (inactive); in the experiment on COLO 205 it was 32.9 µM (inactive); in the experiment with EKVX, > 100 µM (inactive). The GI50 with HCT-15 is 99.5 µM; in the experiment on HOP-92, 92 µM (inactive); in the experiment on IGROV-1, 35.9 µM (inactive); in the experiment on KM-20L2, > 100 µM (inactive); in the experiment with NCI-H226, > 100 µM (inactive); with NCI-H460, > 100 µM (inactive). In addition, the GI50 with OVCAR-3 is 39.4 µM (inactive); in the experiment on OVCAR-4 it was 37.6 µM (inactive); with SK-MEL-2, > 100 µM (inactive); with U-251, 96.6 µM (inactive); in the experiment with UACC-257 it was 32 µM (inactive).
For `CCC1(Cl)C(=O)NC(=O)N(C2CC(O)C(CO)O2)C1N=[N+]=[N-]` (stereo unspecified), the GI50 with 786-0, in the experiment on A549, in the experiment with ACHN, with CCRF-CEM, in the experiment with COLO 205 and in the experiment with EKVX was > 100 µM (inactive) throughout. In addition, the GI50 in the experiment on HOP-92, in the experiment with IGROV-1, in the experiment on KM-20L2, in the experiment on LOX IMVI, in the experiment on NCI-H460 and in the experiment on OVCAR-3 was > 100 µM (inactive) each time. Moreover, the GI50 in the experiment with OVCAR-4, in the experiment on SK-MEL-2, in the experiment with U-251 and in the experiment on UACC-257 was > 100 µM (inactive) in each case.
Turning to `C1CCN(c2nsc(N3CCCCC3)n2)CC1`, the GI50 is > 100 µM (inactive) with 786-0; > 100 µM (inactive) with A549; > 100 µM (inactive) in the experiment on ACHN; > 100 µM (inactive) in the experiment with CCRF-CEM; > 100 µM (inactive) in the experiment with EKVX; > 100 µM in the experiment with HCT-15. The GI50 was 97.1 µM (inactive) in the experiment with HOP-92; > 100 µM (inactive) in the experiment with IGROV-1; > 100 µM (inactive) in the experiment on KM-20L2; > 100 µM (inactive) in the experiment on LOX IMVI; > 100 µM (inactive) in the experiment on NCI-H226; > 100 µM (inactive) with NCI-H460. Further, the GI50 in the experiment with OVCAR-4, in the experiment with SK-MEL-2, in the experiment on U-251 and with UACC-257 was > 100 µM (inactive) throughout.
As to `CC1=CC(=O)CCC2(C)C1CC[C@@H]2OC=O` (stereo partly specified), the GI50 in the experiment on 786-0, in the experiment with A549, in the experiment on ACHN, with CCRF-CEM, in the experiment on COLO 205 and in the experiment with EKVX was > 100 µM (inactive) throughout. The GI50 in the experiment on HOP-92 was > 100 µM (inactive); with IGROV-1, > 100 µM (inactive); in the experiment with KM-20L2 it was 82.2 µM (inactive); in the experiment on LOX IMVI it was > 100 µM (inactive); in the experiment on NCI-H226, > 100 µM (inactive); with NCI-H460, > 100 µM (inactive). Besides, the GI50 with OVCAR-3, in the experiment on OVCAR-4, in the experiment on SK-MEL-2, in the experiment with U-251 and with UACC-257 was > 100 µM (inactive) throughout.
On to `CCOC(=O)CN(Cc1ccccc1)Cc1c(C(=O)c2ccccc2)c2ccccc2n1C(=O)c1ccccc1`, for which the GI50 in the experiment on 786-0, in the experiment on A549, with ACHN, in the experiment with CCRF-CEM, with COLO 205 and with EKVX was > 100 µM (inactive) throughout. Further, the GI50 with HCT-15 is > 100 µM; in the experiment with HOP-92, 10.4 µM (inactive); in the experiment with IGROV-1, > 100 µM (inactive); in the experiment with KM-20L2, > 100 µM (inactive); with LOX IMVI it was > 100 µM (inactive); in the experiment with NCI-H226 it was 60 µM (inactive). Also, the GI50 in the experiment with NCI-H460, in the experiment on OVCAR-3, in the experiment with OVCAR-4, in the experiment with SK-MEL-2 and in the experiment on U-251 was > 100 µM (inactive) each time.
Consider `COc1ccc([C@H]2[C@@H]3CCc4ccccc4C3=NN2C(N)=S)cc1OC`, for which the GI50 is 54.2 µM (inactive) in the experiment with 786-0; 41.9 µM (inactive) with A549; 32.7 µM (inactive) in the experiment with ACHN; 32.4 µM (inactive) with CCRF-CEM; 40.1 µM (inactive) with EKVX; 40.9 µM in the experiment on HCT-15. The GI50 is 35.4 µM (inactive) in the experiment with HOP-92; 69.3 µM (inactive) with IGROV-1; 57.7 µM (inactive) with KM-20L2; 32.6 µM (inactive) in the experiment on LOX IMVI; 45.6 µM (inactive) in the experiment on NCI-H226; 44.1 µM (inactive) in the experiment on NCI-H460. The GI50 in the experiment with OVCAR-3 is 51.4 µM (inactive); in the experiment on OVCAR-4, 41.4 µM (inactive); in the experiment on SK-MEL-2, 50 µM (inactive); with U-251, 60.3 µM (inactive); in the experiment on UACC-257 it was 45.5 µM (inactive).
